Measurements taken from patent US20120231025A1 (priority 2009, published 2012).
“Also recorded” adds a separate entry of the source. Like-named read-outs stand apart in the source and are kept apart here.

Tests used:
bone marrow cells = bone marrow cells irradiated with 1 Gy, injected into lethally irradiated recipients (8 Gy); peptide 10 ug per kg intraperitoneally 15-30 minutes after the cells; cited from earlier work
[1] = tested on: influenza of the H1N2, H3N2, and B strains; set-up: species or system Balb/c mice; conditions: mouse, in vivo
influenza antigen = format: in vivo, Balb/c mice
[2] = tested on: peripheral blood mononuclear cells (PBMC); assay: MIMIC peripheral tissue equivalent (PTE) assay; format: cell-based, human
antibody forming cells = conditions: cited from earlier work
T-cells in spleen = conditions: peptide 10 μg/kg, cited from earlier work
spleen and thymus = conditions: mice irradiated 2 Gy, peptide 10 μg/kg, cited from earlier work
allogeneic lymphocytes = conditions: H-2d anti H-2b, cited from earlier work
hematopoietic cells = conditions: cited from earlier work

## Ala-Glu-Trp-OH
Bone marrow cells
  Number of CFU-S: 8.7 ± 0.4

## Glu-Trp-OH
Bone marrow cells
  Number of CFU-S: 10.5 ± 0.3

## H-L-Ile-L-Glu-L-Trp-OH [Neogen]
[1]
  HI titer: higher response than any of the other groups; also recorded: higher HI response
[1]; sc
  HI titer: no HI titer
Influenza antigen; low-dose Neogen with Vaxigrip compared with Vaxigrip alone
  IgG1 levels (area-under-the-curve analysis): statistically significant increase in IgG1 levels
Influenza antigen; mouse, in vivo
  IgG1 response: progressively lower IgG1 responses
  IgG2a response: higher IgG2a responses
[2]
  Cell-surface expression of HLA-DR on dendritic cells: primed for antigen presentation
[2]; Neogen alone, preliminary
  Dendritic cells migrating (reverse transmigrating) across the HUVEC layer: fewer dendritic cells migrating across the HUVEC layer; also recorded: reduced the number of cells found to reverse transmigrate
  Number of dendritic cells recovered: did not
[2]; Neogen in the presence of antigen, preliminary
  Number of dendritic cells recovered: increased the number of dendritic cells recovered from the system
[2]; Neogen plus antigen, preliminary
  Dendritic cells migrating (reverse transmigrating) across the HUVEC layer: fewer dendritic cells migrating across the HUVEC layer; also recorded: reduced the number of cells found to reverse transmigrate
[2]; as little as 1 ug/mL of Neogen in the presence of antigen, preliminary
  Differentiation of donor PBMCs into macrophages and dendritic cells: enhanced the ability of donor PBMCs to differentiate into macrophages and dendritic cells
Bone marrow cells
  Number of CFU-S: 11.5 ± 0.3
Antibody forming cells; intact mice, peptide 10 μg/kg intramuscularly, 3 or 4 times
  AFC increase, humoral response to SE: 5 times
Antibody forming cells; mice irradiated 2 Gy, peptide 10 μg/kg, 3 and 4 injections
  Number of antibody forming cells: practically doubled
T-cells in spleen; intact mice, 3 or 4 times
  T-cell count: being the same as it was
T-cells in spleen; mice irradiated 2 Gy, 1 to 4 injections, especially three or four
  T-cell count in spleen: grew in all mice who received the peptide injections
Spleen and thymus; 3 and 4 injections
  Karyocyte count in thymus: a certain growth of the karyocyte count in thymus
Spleen and thymus; one and four injections
  Karyocyte count in spleen per mg of organ weight: increase in the karyocyte count in spleen
Allogeneic lymphocytes; peptide 0.1 μg/mL
  Proliferation of allogeneic lymphocytes in MLC: negligible inhibition of the proliferation
Allogeneic lymphocytes; peptide 1, 10, and 20 μg/mL
  Proliferation of allogeneic lymphocytes in MLC: stimulated proliferation of the allogeneic lymphocytes
Hematopoietic cells; animals first irradiated and then treated, U.S. Pat. No. 6,159,950, Example 8
  Hemoglobin levels: more rapidly restored hemoglobin levels
Hematopoietic cells; irradiated mice, U.S. Pat. No. 6,159,950, Example 4
  Antibody forming cells (AFC) after challenge with sheep erythrocytes: making antibody forming cells (AFC) against the challenge

## Ile-Glu-(Trp)-OH
Bone marrow cells
  Number of CFU-S: 8.5 ± 0.5

## Ile-Glu-Trp-NH2
Bone marrow cells
  Number of CFU-S: 7.9 ± 0.4

## Leu-Glu-Trp-OH
Bone marrow cells
  Number of CFU-S: 6.5 ± 0.5

## Lys-Glu-(Trp)-OH
Bone marrow cells
  Number of CFU-S: 5.9 ± 0.5

## Lys-Glu-(Trp-NH2)-OH
Bone marrow cells
  Number of CFU-S: 5.9 ± 0.4

## Lys-Glu-Trp-OH
Bone marrow cells
  Number of CFU-S: 6.2 ± 0.4

## Phe-Glu-Trp-OH
Bone marrow cells
  Number of CFU-S: 6.6 ± 0.3

## Pyro-Glu-Trp-OH
Bone marrow cells
  Number of CFU-S: 9.3 ± 0.4

## Tyr-Glu-Trp-OH
Bone marrow cells
  Number of CFU-S: 7.3 ± 0.4

## Val-Glu-Trp-OH
Bone marrow cells
  Number of CFU-S: 8.2 ± 0.3

## iGlu-Trp-OH
Bone marrow cells
  Number of CFU-S: 10.1 ± 0.5
